From the supplement of paper PMC10307832

What was measured:
Experiment in all cases: relative viability (nuclei count vs DMSO), 5 days (fraction); higher = more cells survive
[1] = compound: C1CC2=C(C1)C=C(C=C2)OC3=NC(=C4C(=N3)N(C=N4)CC5=CC=C(C=C5)C6=CC=CC=C6)N[C@@H](CC7=CC=CC=C7)CO [QS11] + N=C(N)NC(=N)NCCc1ccccc1 [Phenformin] (partner 250 µM)
How it was run: (§1)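 Relative viability is defined as nuclei in treated wells over nuclei in vehicle wells. Duplicate plates were run and medians reported. Lung cancer cell lines in 1536-well plates were dosed by pin tool one day after seeding, with one drug or with a fixed anchor-drug dose plus five library-drug doses (not always all listed) in √10 steps, and nuclei were counted after 5 days.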

[2] = compound: CC1=C(C=C(C=C1)NC(=O)C2=CC(=CC=C2)C(C)(C)C#N)NC3=CC4=C(C=C3)N=CN(C4=O)C [AZ628] + C[C@@H](Oc1cc(-c2cnn(C3CCNCC3)c2)cnc1N)c1c(Cl)ccc(F)c1Cl [Crizotinib] (partner 1 µM)
How it was run: as §1

[3] = compound: CC1=C(C=C(C=C1)NC(=O)C2=CC(=CC=C2)C(C)(C)C#N)NC3=CC4=C(C=C3)N=CN(C4=O)C [AZ628] + N=C(N)NC(=N)NCCc1ccccc1 [Phenformin] (partner 250 µM)
How it was run: as §1

[4] = compound: C[As](C)SC[C@H](NC(=O)CC[C@H](N)C(=O)O)C(=O)NCC(=O)O [Darinaparsin] + Cc1cc(Nc2cc(N3CCN(C)CC3)nc(Sc3ccc(NC(=O)C4CC4)cc3)n2)n[nH]1 [Tozasertib] (partner 0.1 µM)
How it was run: as §1

Cell Line	relative viability ([1]; first compound 0.08 µM)	relative viability ([1]; first compound 0.253 µM)	relative viability ([1]; first compound 0.8 µM)	relative viability ([1]; first compound 2.53 µM)	relative viability ([1]; first compound 8 µM)	relative viability ([2]; first compound 0.08 µM)	relative viability ([2]; first compound 0.253 µM)	relative viability ([2]; first compound 0.8 µM)	relative viability ([2]; first compound 2.53 µM)	relative viability ([2]; first compound 8 µM)	relative viability ([3]; first compound 0.08 µM)	relative viability ([3]; first compound 0.253 µM)	relative viability ([3]; first compound 0.8 µM)	relative viability ([3]; first compound 2.53 µM)	relative viability ([3]; first compound 8 µM)	relative viability ([4]; first compound 0.08 µM)	relative viability ([4]; first compound 0.8 µM)	relative viability ([4]; first compound 2.53 µM)	relative viability ([4]; first compound 8 µM)
NCI-H1355	0.445	0.444	0.457	0.418	0.457	1.04	1.05	0.971	0.89	0.768	0.502	0.444	0.431	0.411	0.39	0.571	0.568	0.44	0.499
NCI-H1437	0.302	0.225	0.285	0.334	0.283	0.869	0.822	0.899	0.995	0.932	0.369	0.266	0.262	0.331	0.318	0.439	0.394	0.353	0.434
NCI-H1650	0.374	0.472	0.376	0.474	0.391	1.13	0.965	0.998	0.984	0.841	0.537	0.403	0.33	0.333	0.335	0.473	0.325	0.417	0.394
NCI-H1651	0.377	0.384	0.305	0.374	0.343	0.864	0.87	0.863	0.902	0.925	0.396	0.316	0.334	0.312	0.36	0.911	0.739	0.633	0.918
NCI-H1666	0.556	0.519	0.55	0.479	0.398	1.09	0.901	0.819	0.761	0.632	0.584	0.582	0.543	0.518	0.514	0.623	0.612	0.745	0.579
NCI-H1734	0.391	0.397	0.389	0.374	0.375	0.561	0.574	0.568	0.621	0.381	0.383	0.346	0.282	0.327	0.247	0.276	0.257	0.256	0.297
NCI-H1755	0.594	0.649	0.502	0.533	0.51	0.809	0.818	0.786	0.811	0.769	0.614	0.626	0.585	0.589	0.46	0.576	0.471	0.483	0.616
NCI-H1915	0.362	0.369		0.376	0.348	0.976	0.919	0.869	0.727	0.495	0.404	0.388	0.374	0.351	0.233	0.502	0.479	0.427	0.435
NCI-H1944	0.202	0.204		0.196	0.145	1.2	1.09	0.97	0.973	0.878	0.188	0.181	0.184	0.177	0.187	0.245	0.263	0.251	0.243
NCI-H1975	0.419	0.406	0.429	0.493	0.515	0.957	1.02	0.896	0.927	0.627	0.421	0.388	0.403	0.384	0.215	1.12	0.804	0.783	0.905
NCI-H1993	0.522	0.583	0.528	0.615	0.52	0.933	0.943	0.873	0.77	0.729	0.46	0.562	0.545	0.523	0.537	0.598	0.585	0.549	0.557
NCI-H2009	0.466	0.498	0.459	0.419	0.416	0.848	0.722	0.524	0.703	0.292	0.447	0.395	0.283	0.346	0.273	0.927	0.682	0.731	0.884
NCI-H2023	0.304	0.473	0.411	0.457	0.459	0.638	0.663	0.622	0.635	0.478	0.387	0.392	0.368	0.381	0.293	0.696	0.306	0.357	0.425
NCI-H2085	0.707	0.681	0.671	0.726	0.844	0.84	0.928	0.912	0.911	0.69	0.83	0.662	0.784	0.636	0.583	0.953	0.814	0.78	0.892
NCI-H2087	0.479	0.46		0.521	0.657	0.926	1.04	1.03	0.926	0.362	0.348	0.289	0.246	0.27	0.169	0.243	0.246	0.254	0.22
NCI-H2126	0.542	0.505	0.552	0.561	0.541	1.04	0.98	1.06	1.07	1.03	0.524	0.542	0.491	0.484	0.545	0.935	0.794	0.69	0.878
NCI-H2170	0.436	0.404	0.399	0.44	0.392	1.23	1.19	1.12	1.15	1.21	0.447	0.398	0.402	0.41	0.381	0.667	0.793	0.617	1.03
